Our source for the Ki values is BindingDB's records for doi:10.1016/0922-4106(95)90043-8 (Uppsala, 1995).

In experiment [1] the target is Melanocyte-stimulating hormone receptor (Homo sapiens, UniProt Q01726).
For the next experiment, the target named is Melanocortin receptor 5 (Homo sapiens, UniProt P33032).
Another experiment deals with Melanocortin receptor 3 (Homo sapiens, UniProt P41968).

pKi: −log10 of the molar value. Non-standard residues stand in square brackets, D forms with d. Residues, ends and D or L forms follow the SMILES beside them. Met(O2) = CS(=O)(=O)CC[C@H](N)C(=O)O

Chain of Melanocortin receptor 5 (P33032 whole entry): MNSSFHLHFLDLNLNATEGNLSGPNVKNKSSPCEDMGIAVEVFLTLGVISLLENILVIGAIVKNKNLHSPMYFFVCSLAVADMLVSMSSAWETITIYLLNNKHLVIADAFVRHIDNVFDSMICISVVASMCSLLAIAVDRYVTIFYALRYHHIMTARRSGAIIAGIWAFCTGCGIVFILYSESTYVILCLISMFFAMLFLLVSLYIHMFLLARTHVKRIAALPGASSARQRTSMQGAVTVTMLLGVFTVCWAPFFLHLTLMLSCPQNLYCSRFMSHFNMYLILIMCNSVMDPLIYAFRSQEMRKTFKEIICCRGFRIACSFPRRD
Chain of Melanocyte-stimulating hormone receptor (Q01726 whole entry): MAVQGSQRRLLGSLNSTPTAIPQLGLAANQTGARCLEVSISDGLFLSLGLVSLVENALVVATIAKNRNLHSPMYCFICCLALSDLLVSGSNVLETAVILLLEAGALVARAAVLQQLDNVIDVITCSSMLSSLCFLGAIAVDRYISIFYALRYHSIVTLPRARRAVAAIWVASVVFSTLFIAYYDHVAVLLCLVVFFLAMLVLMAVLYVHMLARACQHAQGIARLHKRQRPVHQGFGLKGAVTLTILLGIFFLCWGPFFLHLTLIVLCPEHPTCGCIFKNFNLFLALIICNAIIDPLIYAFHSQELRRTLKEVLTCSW
Chain of Melanocortin receptor 3 (P41968 whole entry): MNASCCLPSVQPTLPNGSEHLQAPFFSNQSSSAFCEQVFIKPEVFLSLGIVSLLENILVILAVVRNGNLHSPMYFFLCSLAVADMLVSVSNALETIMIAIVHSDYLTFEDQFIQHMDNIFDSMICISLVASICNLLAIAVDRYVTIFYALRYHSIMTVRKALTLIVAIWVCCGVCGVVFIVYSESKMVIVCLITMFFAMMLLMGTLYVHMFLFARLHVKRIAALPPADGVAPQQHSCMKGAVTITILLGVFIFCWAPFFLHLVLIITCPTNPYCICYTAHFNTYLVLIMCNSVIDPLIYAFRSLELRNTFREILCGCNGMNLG

Turning to “H-YVMGHFRWDRFGRRNGSSSSGVGGAAQ-OH [Gamma3-MSH]”, the pKi is 8.86 in experiment [1], under 5.00 at Melanocortin receptor 5 and 7.96 on Melanocortin receptor 3.

With `CSCC[C@H](NC(=O)[C@H](CO)NC(=O)[C@H](Cc1ccc(O)cc1)NC(=O)[C@@H](N)CO)C(=O)N[C@@H](CCC(=O)O)C(=O)N[C@@H](Cc1cnc[nH]1)C(=O)N[C@@H](Cc1ccccc1)C(=O)N[C@@H](CCCNC(=N)N)C(=O)N[C@@H](Cc1c[nH]c2ccccc12)C(=O)NCC(N)=O` [ACTH-(1-10)], the pKi on Melanocortin receptor 5 is under 5.00; on Melanocortin receptor 3 it was 6.84.

On to H-SMEVRGW-OH [delta MSH], for which the pKi (in experiment [1]; on Melanocortin receptor 5; on Melanocortin receptor 3) was under 5.00 throughout.

Turning to “H-SYSMEHFRWGKPVGKKRRPVKVYPNGAEDESAEAFPLEF-OH [ACTH]”, the pKi in experiment [1] is 8.60; on Melanocortin receptor 5 it was under 5.00; at Melanocortin receptor 3, 7.06.

With `CSCC[C@H](NC(=O)[C@@H](NC(=O)[C@@H](N)Cc1ccc(O)cc1)C(C)C)C(=O)NCC(=O)N[C@@H](Cc1cnc[nH]1)C(=O)N[C@@H](Cc1ccccc1)C(=O)N[C@@H](CCCN=C(N)N)C(=O)N[C@@H](Cc1c[nH]c2ccccc12)C(=O)N[C@@H](CC(=O)O)C(=O)N[C@@H](CCCN=C(N)N)C(=O)N[C@@H](Cc1ccccc1)C(N)=O` [Gamma1-MSH], the pKi in experiment [1] was 8.57.

For the compound `CSCC[C@H](N)C(=O)N[C@@H](CCC(=O)O)C(=O)N[C@@H](Cc1cnc[nH]1)C(=O)N[C@@H](Cc1ccccc1)C(=O)N[C@@H](CCCNC(=N)N)C(=O)N[C@@H](Cc1c[nH]c2ccccc12)C(=O)NCC(N)=O` [NSC_123787], the pKi is 6.97 in experiment [1], under 5.00 at Melanocortin receptor 5 and 6.11 on Melanocortin receptor 3.

As for `CS(=O)(=O)CC[C@H](N)C(=O)N[C@@H](CCC(=O)O)C(=O)N[C@@H](Cc1c[nH]cn1)C(=O)N[C@@H](Cc1ccccc1)C(=O)N[C@H](CCCCN)C(=O)N[C@@H](Cc1ccccc1)C(=O)O` [CAS_50913-82-1] (H-[Met(O2)]EHF[dK]F-OH), the negative-log Ki (pKi) (in experiment [1]; on Melanocortin receptor 5; at Melanocortin receptor 3) was under 5.00 each time.

A word on the pKi: it is the Ki on a negative log10 scale, so that one unit is a factor of ten. A high value points to a small Ki.
